Patent EP0428000A1, “Fluorogenic substrates for the detection of proteolytic enzyme activity” (priority 1989, dated 1991)
pIC50: −log10 of the molar value. ≈ marks a conversion by molar mass, not a printed value. Like-named read-outs stand apart in the source and are kept apart here. Numbered stars: 1 amine (or outer) side, 2 acyl side, 3 side chain; on linkers, the order of the positions; unused ones are H or OH. Square brackets hold non-standard residues; d marks the D form. Peptide text beside a SMILES is read from it. * marks the point of attachment. X3 = Nc1c(S(=O)(=O)O)cc2c3c(cc(S(=O)(=O)O)cc13)C(=O)N(CCCCCN*)C2=O; Dabcyl = CN(C)c1ccc(N=Nc2ccc(C(=O)*)cc2)cc1; X2 = CN(C)c1ccc(N=Nc2ccc(S(=O)(=O)*)cc2)cc1; X1 = CN(C)c1ccc(/N=N/c2ccc(C(=O)*)cc2)cc1; EDANS = O=S(=O)(O)c1cccc2c(NCCN*)cccc12; Sta = CC(C)C[C@H](N)[C@@H](O)CC(=O)O; NMeGABA = CN(CCCC(=O)[*:2])[*:1]; Isovaleryl = CC(C)CC(=O)*; GABA = NCCCC(=O)O

Assays:
AMV protease [1] = target: AMV protease (Avian myeloblastosis virus, UniProt P26315); assay: Fluorogenic assay for inhibition of AMV protease (Substrate II); assay type: biochemical
Chain of AMV protease (Avian myeloblastosis virus, UniProt P26315) (P26315 whole entry): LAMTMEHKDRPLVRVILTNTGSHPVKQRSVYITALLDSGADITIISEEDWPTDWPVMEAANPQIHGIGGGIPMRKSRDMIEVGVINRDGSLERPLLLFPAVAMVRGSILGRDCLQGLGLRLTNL
Procedure: (§1) Rate measurements of the change of the fluorescence intensity over time were also performed for reaction mixtures containing a protease enzyme and a fluorogenic substrate of the present invention.

HIV protease [2] = target: T1, HIV protease (Human immunodeficiency virus type 1 group M subtype B, UniProt P04585); assay: Fluorogenic assay for inhibition of HIV protease (Substrate I); conditions: Cornish-Bowden plot, parallel lines; pH 4.7, 30°C
Procedure: Typically, the assay reaction is performed using buffered solutions, and the reaction is allowed to proceed to virtual completion. The hydrolysis of the fluorogenic substrate by the protease enzyme is monitored by steady state fluorescence using a spectrofluorometer. Fluorescence intensity measurements can be acquired continuously and recorded directly by an interfaced microcomputer. The rate of fluorescent substrate hydrolysis can then be computed from a linear regression analysis. In this assay, the rate of hydrolysis of the fluorogenic substrate is directly proportional to the concentration of the protease. By omitting the protease inhibitor compound from the reaction mixture, the rate of change in fluorescent intensity due to the enzyme's activity can be determined. […]
The assay reaction was carried out in a fluorescence microcell (3 mm), for which a total sample volume of 120 microliters is adequate in most fluorometers. […] Prewarmed substrate solution (20 µL at 30°C) was then added to the microcell, and the fluorescence intensity of the reaction mixture was recorded as a function of time. […] The rate of change of the fluorescence intensity over the subsequent five to eight minutes was determined by linear regression. […] Therefore, the per cent inhibition was calculated as 100 x (1 - (rate in presence of inhibitor)/(rate in absence of inhibitor)).

HIV protease [3] = target: T1, HIV protease; assay: HIV protease activity towards fluorogenic substrates; assay type: biochemical, human immunodeficiency virus-1 (HIV-1); design: The 11 kd protease enzyme, which is encoded by the human immunodeficiency virus-1 (HIV-1)
Procedure: as §1

AMV protease [4] = assay type: biochemical, avian myeloblastosis virus (AMV)
Procedure: as §1

HIV protease [5] = target: T1, HIV protease; assay: Fluorescence enhancement of substrate on hydrolysis by HIV protease; assay type: biochemical, human immunodeficiency virus-1 (HIV-1); design: The 11 kd protease enzyme, which is encoded by the human immunodeficiency virus-1 (HIV-1)
Procedure: Analytical HPLC and the isolation of substrate fragments were performed in accordance with methods well known in the art on a Hewlett Packard 1090M system equipped with diode array absorbance and fluorescence detectors, using either a Brownlee 250 x 4.6 mm C8 silica column at pH values below 5, or a Hamilton 50 x 4.1 mm PRP3 polymer column over a pH range of 2-8. A water to acetonitrile gradient was used; either 0.1% trifluoroacetic acid (pH of about 2), 10 mM sodium acetate (pH 4.9), or 10 mM Tris-HCl (pH 8) was included to vary the pH.
The detection system permitted the simultaneous acquisition of the chromatograms for fluorescence and several absorbance wavelengths, as well as the absorption spectra for all peaks. The fluorescence (excitation at 340 nm, emission at 490 nm) and 475 nm absorbance signals, which arise respectively from the EDANS and DABCYL groups, were used to monitor and quantitate the fragments produced by proteolysis of the substrate.
The molar fluorescence enhancement of Substrate I was also estimated by HPLC analysis of HIV protease/Substrate reaction mixtures at times before the hydrolysis reaction was complete. […]

physchem = conditions: NaOAc buffer, pH 4.7, aqueous buffer
[6] = assay buffer used
[7] = pH 4.7, aqueous buffer

Structure (SMILES): CC(C)CC(=O)N[C@H](C(=O)N[C@H](C(=O)N[C@@H](CC(C)C)[C@@H](O)CC(=O)N[C@@H](C)C(=O)N[C@@H](CC(C)C)[C@@H](O)CC(=O)O)C(C)C)C(C)C [pepstatin] (Isovaleryl-VV[Sta]A[Sta]-OH)
- pIC50 (AMV protease [1]): ~4.40
- mode of inhibition of the protease (HIV protease [2]): purely competitive

Structure (SMILES): CC[C@H](C)[C@H](NC(=O)[C@@H]1CCCN1C(=O)[C@H](Cc1ccc(O)cc1)NC(=O)[C@H](CC(N)=O)NC(=O)[C@H](CCC(N)=O)NC(=O)[C@H](CO)NC(=O)CCCNC(=O)c1ccc(/N=N/c2ccc(N(C)C)cc2)cc1)C(=O)N[C@H](C(=O)N[C@@H](CCC(N)=O)C(=O)NCCNc1cccc2c(S(=O)(=O)O)cccc12)C(C)C [Substrate I] ({X1-GABA}-SQNYPIVQ-{EDANS})
- cleavage by HIV protease (in words) (HIV protease [3]): cleaved quite efficiently
- maximum velocity for the enzymatic reaction (Vmax) (HIV protease [3]; HIV protease): 47 nM/min
- Km (HIV protease [3]; HIV protease; read-out: Michaelis-Menten kinetics constant (Km)): 103 µM
- rate of cleavage by HIV protease, Substrate I relative to Substrate II (HIV protease [3]; each substrate 3.4 µM): ten times faster
- cleavage by AMV protease (in words) (AMV protease [4]): not by AMV protease
- enhancement of the fluorescence quantum yield of the Pro-Ile-Val-Gln-EDANS fragment over the parent substrate (HIV protease [5]; HPLC analysis, pH 4.9, acetonitrile-water): 33 fold
- fluorescence enhancement on cleavage (HIV protease [5]; under assay conditions): 40 fold
- solubility (physchem): ~150 µM (≈ 230 µg/mL)

Structure (SMILES): CC[C@H](C)[C@H](NC(=O)[C@@H]1CCCN1C(=O)[C@H](Cc1ccccc1)NC(=O)[C@H](CC(N)=O)NC(=O)[C@H](CC(C)C)NC(=O)[C@@H](NC(=O)[C@H](C)NC(=O)CCCNC(=O)c1ccc(/N=N/c2ccc(N(C)C)cc2)cc1)[C@@H](C)O)C(=O)N[C@@H](CO)C(=O)N[C@@H](CCC(N)=O)C(=O)N[C@@H](CCC(=O)O)C(=O)NCCNc1cccc2c(S(=O)(=O)O)cccc12 [Substrate VI] ({X1-GABA}-ATLNFPISQE-{EDANS})
- cleavage by HIV protease (in words) (HIV protease [3]): not as efficiently as was Substrate I

Structure (SMILES): CC[C@H](C)[C@H](NC(=O)[C@H](CCSC)NC(=O)[C@H](Cc1ccc(O)cc1)NC(=O)[C@H](CC(N)=O)NC(=O)[C@H](CCC(N)=O)NC(=O)[C@H](CO)NC(=O)CCCN(C)S(=O)(=O)c1ccc(N=Nc2ccc(N(C)C)cc2)cc1)C(=O)N[C@H](C(=O)N[C@@H](CCC(N)=O)C(=O)NCCNc1cccc2c(S(=O)(=O)O)cccc12)C(C)C [Substrate IV] (X2-[NMeGABA]SQNYMIVQ-{EDANS})
- solubility (in words) [6]: poor solubility

Structure (SMILES): CC(C)[C@H](NC(=O)[C@H](CO)NC(=O)CCCNC(=O)c1ccc(/N=N/c2ccc(N(C)C)cc2)cc1)C(=O)N[C@H](C(=O)N[C@@H](Cc1ccc(O)cc1)C(=O)N1CCC[C@H]1C(=O)N[C@H](C(=O)N[C@H](C(=O)N[C@@H](CCC(N)=O)C(=O)NCCNc1cccc2c(S(=O)(=O)O)cccc12)C(C)C)C(C)C)C(C)C [Substrate II] ({X1-GABA}-SVVYPVVQ-{EDANS})
- AMV protease activity against Substrate II relative to Substrate I (AMV protease [4]): at least 50 fold
- cleavage by AMV protease (in words) (AMV protease [4]): efficient substrate

Structure (SMILES): CC[C@H](C)[C@H](NC(=O)[C@H](CCC(N)=O)NC(=O)[C@@H]1CCCN1C(=O)[C@H](Cc1ccccc1)NC(=O)[C@H](CC(N)=O)NC(=O)[C@H](Cc1ccccc1)NC(=O)[C@H](CO)NC(=O)[C@@H](NC(=O)CCCN(C)S(=O)(=O)c1ccc(N=Nc2ccc(N(C)C)cc2)cc1)C(C)C)C(=O)N[C@H](C(=O)N[C@@H](CC(C)C)C(=O)NCCNc1cccc2c(S(=O)(=O)O)cccc12)[C@@H](C)O [Substrate III] (X2-[NMeGABA]VSFNFPQITL-{EDANS})
- solubility (in words) [6]: poor solubility

Structure (SMILES): CC[C@H](C)[C@H](NC(=O)[C@@H]1CCCN1C(=O)[C@H](Cc1ccc(O)cc1)NC(=O)[C@H](CC(N)=O)NC(=O)[C@H](CCC(N)=O)NC(=O)[C@H](CO)NC(=O)CCCNC(=O)c1ccc(N=Nc2ccc(N(C)C)cc2)cc1)C(=O)N[C@H](C(=O)N[C@@H](CCC(N)=O)C(=O)NCCCCCN1C(=O)c2cc(S(=O)(=O)O)cc3c(N)c(S(=O)(=O)O)cc(c23)C1=O)C(C)C ({Dabcyl-GABA}-SQNYPIVQ-X3)
- solubility [7]: ≥ 350 µM

Structure (SMILES): CC[C@H](C)[C@H](NC(=O)[C@@H](NC(=O)[C@H](C)NC(=O)[C@@H](NC(=O)CCCNC(=O)c1ccc(/N=N/c2ccc(N(C)C)cc2)cc1)[C@@H](C)O)[C@@H](C)O)C(=O)N[C@@H](CCSC)C(=O)N[C@@H](CCSC)C(=O)N[C@@H](CCC(N)=O)C(=O)N[C@@H](CCCNC(=N)N)C(=O)NCC(=O)N[C@@H](CCC(=O)O)C(=O)NCCNc1cccc2c(S(=O)(=O)O)cccc12 [Substrate VII] ({X1-GABA}-TATIMMQRGE-{EDANS})
- cleavage by HIV protease (in words) (HIV protease [3]): more efficient substrate
- maximum velocity for the enzymatic reaction (Vmax) (HIV protease [3]; HIV protease): 1.8 nM/min
- Km (HIV protease [3]; read-out: Michaelis-Menten kinetics constant (Km); HIV protease): 5.9 µM

Structure (SMILES): CC[C@H](C)[C@H](NC(=O)CCCNC(=O)c1ccc(/N=N/c2ccc(N(C)C)cc2)cc1)C(=O)N[C@@H](CCCNC(=N)N)C(=O)N[C@@H](CCC(N)=O)C(=O)N[C@@H](C)C(=O)N[C@@H](CC(N)=O)C(=O)N[C@@H](Cc1ccccc1)C(=O)N[C@@H](CC(C)C)C(=O)NCC(=O)N[C@@H](CC(C)C)C(=O)NCCNc1cccc2c(S(=O)(=O)O)cccc12 [Substrate V] ({X1-GABA}-IRQANFLGL-{EDANS})
- cleavage by HIV protease (in words) (HIV protease [3]): not as efficiently as was Substrate I
